The results in this text go back to patent US11638428B2, “Nematocidal heterocyclic amides” (CORTEVA AGRISCIENCE LLC, priority 2015, dated 2023).

For the series, the system named is cucumber seedlings. Description: Test A: phytotoxicity to the cucumber seedlings of the test units. In kind it is in vivo. The note with it: 500 ppm active ingredient applied to soil. As for the experimental part:
Control of the southern root-knot nematode (Meloidogyne incognita) through contact and/or systemic means was evaluated in test units consisting of small open containers filled with a sandy soil mixture and cucumber seedlings. Test compounds were formulated using a solution containing 50% acetone and 50% water. […] Each test was replicated 3 times. After treatment, the test units were allowed to dry for 1 hour, after which time about 400 second-stage juvenile (J2) larvae and 800 eggs were pipetted into the soil. The test units were held at 27° C. and watered as needed for 7 days. Nematocidal efficacy was determined by the amount of root gall formation observed when compared to an untreated control. No gall formation was indicative of 100% nematode control. […] No nematode control rating was given to compounds showing significant phytotoxicity.

Turning to `CC(NC(=O)c1ccoc1Cl)C1CC1` (racemic) [Compound 11], the phytotoxicity result is given as “no significant phytotoxicity”.

Regarding `CC(NC(=O)c1sccc1C(C)(C)C)C(C)(C)C` (single isomer, unassigned) [Compound 92], the phytotoxicity entry is recorded as “no significant phytotoxicity”.

In the case of `CCC(C)C(C)NC(=O)c1ccoc1C` (stereo not shown) [Compound 1], the phytotoxicity entry is reported as “no significant phytotoxicity”.

Consider `Cc1occc1C(=O)N(C)C(C)C1CC1` (stereo not shown) [Compound 2], for which the phytotoxicity result is given as “no significant phytotoxicity”.

As to `Cc1occc1C(=O)NC(C)C` [Compound 3], the phytotoxicity result is on record as “no significant phytotoxicity”.

Turning to `Cc1occc1C(=O)NC(C)C(C)C` (stereo not shown) [Compound 4], the phytotoxicity result is on record as “no significant phytotoxicity”.

Turning to `CCCC(C)NC(=O)c1ccoc1C` (stereo not shown) [Compound 5], the phytotoxicity entry was “no significant phytotoxicity”.

Take `Cc1occc1C(=O)NC(C)C1CC1` (stereo not shown) [Compound 6]: the phytotoxicity entry is given as “no significant phytotoxicity”.

Consider `Cc1occc1C(=O)NC(C)(C)C1CC1` [Compound 7], for which the phytotoxicity entry is on record as “no significant phytotoxicity”.

On to `CC(C)(NC(=O)c1ccoc1Cl)C1CC1` [Compound 8], for which the phytotoxicity result was “no significant phytotoxicity”.

`CC(C)C(C)(C)NC(=O)c1ccoc1Cl` [Compound 10]: the phytotoxicity entry is listed as “no significant phytotoxicity”.

Turning to `COCC(C)(C)NC(=O)c1ccoc1Cl` [Compound 12], the phytotoxicity entry is listed as “no significant phytotoxicity”.

As for `CSCC(C)(C)NC(=O)c1ccoc1Cl` [Compound 14], the phytotoxicity result is listed as “no significant phytotoxicity”.

Turning to `CCC(C)NC(=O)c1ccoc1Cl` (stereo not shown) [Compound 16], the phytotoxicity result was “no significant phytotoxicity”.

In the case of `CCCC(C)NC(=O)c1ccoc1Cl` (stereo not shown) [Compound 17], the phytotoxicity result is recorded as “no significant phytotoxicity”.

`CC(C)(C)CC(C)(C)NC(=O)c1ccoc1Cl` [Compound 18]: the phytotoxicity result is “no significant phytotoxicity”.

`CC(C)CC(C)NC(=O)c1ccoc1Cl` (stereo not shown) [Compound 19]: the phytotoxicity result was “no significant phytotoxicity”.

Consider `CC(NC(=O)c1ccoc1Cl)C1CCCC1` (stereo not shown) [Compound 20], for which the phytotoxicity entry is listed as “no significant phytotoxicity”.

Turning to `CC(NC(=O)c1ccoc1Cl)C1CCCCC1` (stereo not shown) [Compound 21], the phytotoxicity entry is “no significant phytotoxicity”.

As to `CC(NC(=O)c1ccoc1Cl)C1(C)CC1` (stereo not shown) [Compound 22], the phytotoxicity result is listed as “no significant phytotoxicity”.

Take `CC(NC(=O)c1ccoc1Cl)C1CCC1` (stereo not shown) [Compound 23]: the phytotoxicity entry is reported as “no significant phytotoxicity”.

Consider `CC(NC(=O)c1ccoc1Cl)C(F)(F)F` (stereo not shown) [Compound 24], for which the phytotoxicity entry is on record as “no significant phytotoxicity”.

Regarding `CC(C)C(C)NC(=O)c1ccoc1Cl` (stereo not shown) [Compound 26], the phytotoxicity entry is given as “no significant phytotoxicity”.

As for `CC(NC(=O)c1ccoc1Cl)C(C)(C)C` (stereo not shown) [Compound 27, 2-chloro-N-(1,2,2-trimethylpropyl)-3-furancarboxamide], the phytotoxicity entry is reported as “no significant phytotoxicity”.

Regarding `CCCCCC(C)NC(=O)c1ccoc1Cl` (stereo not shown) [Compound 29], the phytotoxicity entry is “no significant phytotoxicity”.

In the case of `CC(C)CCCC(C)NC(=O)c1ccoc1Cl` (stereo not shown) [Compound 30], the phytotoxicity result is reported as “no significant phytotoxicity”.

Regarding `CC(NC(=O)c1ccoc1Br)C1CC1` (stereo not shown) [Compound 32], the phytotoxicity entry is listed as “no significant phytotoxicity”.

For `CC(C)C(C)NC(=O)c1ccoc1Br` (stereo not shown) [Compound 33], the phytotoxicity result is recorded as “no significant phytotoxicity”.

For `CCCC(C)NC(=O)c1ccoc1Br` (stereo not shown) [Compound 34], the phytotoxicity result is given as “no significant phytotoxicity”.

`CC(NC(=O)c1ccoc1Br)C(C)(C)C` (stereo not shown) [Compound 35]: the phytotoxicity result is recorded as “no significant phytotoxicity”.

Consider `Cc1occc1C(=O)N[C@H](C)C1CC1` [Compound 36], for which the phytotoxicity entry is “no significant phytotoxicity”.

Regarding `Cc1occc1C(=O)N[C@@H](C)C1CC1` [Compound 37], the phytotoxicity result is “no significant phytotoxicity”.

As for `Cc1occc1C(=O)N[C@H](C)C(C)(C)C` [Compound 39], the phytotoxicity result was “no significant phytotoxicity”.

For the compound `C[C@H](NC(=O)c1ccoc1Cl)C(C)(C)C` [Compound 40, 2-chloro-N-[(1S)-1,2,2-trimethylpropyl]-3-furancarboxamide], the phytotoxicity entry was “no significant phytotoxicity”.

On to `C[C@H](NC(=O)c1ccoc1Br)C(C)(C)C` [Compound 42], for which the phytotoxicity result is “no significant phytotoxicity”.

On to `CC(C)[C@H](C)NC(=O)c1ccoc1Cl` [Compound 43], for which the phytotoxicity entry is “no significant phytotoxicity”.

For the compound `C[C@@H](NC(=O)c1ccoc1Cl)C1CC1` [Compound 45, 2-chloro-N-[(1R)-1-cyclopropylethyl]-3-furancarboxamide], the phytotoxicity result is on record as “no significant phytotoxicity”.

For the compound `Cc1occc1C(=O)NC(C1CC1)C1CC1` [Compound 46], the phytotoxicity entry is on record as “no significant phytotoxicity”.

Take `Cc1occc1C(=O)NC1(C2CC2)CC1` [Compound 47]: the phytotoxicity result is reported as “no significant phytotoxicity”.

As for `Cc1ccsc1C(=O)NC(C)C(C)C` (stereo not shown) [Compound 48], the phytotoxicity entry is given as “no significant phytotoxicity”.

As to `CC(NC(=O)c1sccc1Br)C1CC1` (stereo not shown) [Compound 50], the phytotoxicity result is listed as “no significant phytotoxicity”.

Regarding `Cc1ccsc1C(=O)NC(C1CC1)C1CC1` [Compound 52], the phytotoxicity entry is recorded as “no significant phytotoxicity”.

Turning to `CCC(NC(=O)c1ccoc1Cl)C1CC1` (stereo not shown) [Compound 53], the phytotoxicity result is on record as “no significant phytotoxicity”.

`CC(NC(=O)c1ncsc1I)C1CC1` (stereo not shown) [Compound 56]: the phytotoxicity entry is listed as “no significant phytotoxicity”.

As to `CSc1ccsc1C(=O)NC(C)C1CC1` (stereo not shown) [Compound 58], the phytotoxicity entry was “no significant phytotoxicity”.

For the compound `Cc1ncc(C(=O)NC(C)C2CC2)s1` (stereo not shown) [Compound 60], the phytotoxicity entry is “no significant phytotoxicity”.

`CC(NC(=O)c1ncsc1Cl)C1CC1` (stereo not shown) [Compound 62]: the phytotoxicity result is “no significant phytotoxicity”.

In the case of `CC(NC(=O)c1ncsc1Br)C1CC1` (stereo not shown) [Compound 63], the phytotoxicity result is listed as “no significant phytotoxicity”.

On to `CC(NC(=O)c1sccc1C(F)(F)F)C1CC1` (stereo not shown) [Compound 65], for which the phytotoxicity result is “no significant phytotoxicity”.

On to `CCC(NC(=O)c1ccoc1C)C1CC1` (stereo not shown) [Compound 67], for which the phytotoxicity result is “no significant phytotoxicity”.

Take `Cc1ncsc1C(=O)NC(C)C1CC1` (stereo not shown) [Compound 70]: the phytotoxicity result is “no significant phytotoxicity”.

Turning to `CC(NC(=O)c1ncsc1C(F)(F)F)C1CC1` (stereo not shown) [Compound 72], the phytotoxicity result is on record as “no significant phytotoxicity”.

In the case of `C[C@@H](NC(=O)c1ccoc1Br)C1CC1` [Compound 74], the phytotoxicity result was “no significant phytotoxicity”.

For the compound `CC(C)[C@@H](C)NC(=O)c1ccoc1Cl` [Compound 75], the phytotoxicity result was “no significant phytotoxicity”.

As to `CC[C@H](C)NC(=O)c1ccoc1Cl` [Compound 77], the phytotoxicity entry is reported as “no significant phytotoxicity”.

Regarding `Cc1occc1C(=O)NC(C)CC(C)(C)C` (stereo not shown) [Compound 80], the phytotoxicity result is “no significant phytotoxicity”.

For the compound `CC(C)C(C)NC(=O)c1sccc1C(C)(C)C` (stereo not shown) [Compound 89], the phytotoxicity entry is recorded as “no significant phytotoxicity”.

Take `CC(NC(=O)c1sccc1C(C)(C)C)C(C)(C)C` (stereo not shown) [Compound 90]: the phytotoxicity result is reported as “no significant phytotoxicity”.

As for `CC(NC(=O)c1sccc1C#N)C(C)(C)C` (stereo not shown) [Compound 95], the phytotoxicity entry was “no significant phytotoxicity”.

As for `Cc1occc1C(=O)N[C@H](C)C(C)C` [Compound 96], the phytotoxicity entry was “no significant phytotoxicity”.

Consider `Cc1occc1C(=O)N[C@@H](C)C(C)C` [Compound 101], for which the phytotoxicity entry is reported as “no significant phytotoxicity”.
